The record followed here is US10647725B2, “Anti-infective 2-aminothiophenes” (priority 2016, dated 2020).

The test system of test [1] is autoluminescent Mtb strain derived from Mtb H37Rv in THP-1 cells. Kind of test: microbe, parasite or virus in culture. It counts as cell-based. The following applies: Mycobacterium tuberculosis; for IC50: THP-1, 72 h, read-out: IC50 intracellular activity.
The test system of test [2] is Mtb H37Rv. Kind of test: modified 96-well microplate Alamar blue assay (MABA), growth inhibition. The class given is cell-based, Mycobacterium tuberculosis. The following applies: for MIC: Mycobacterium tuberculosis, H37RV, Mtb H37Rv; for growth inhibition activity in words: SAR discussion. For orientation: The colour change of resazurin is a common sign of viable cells or microbes.

Test [3] relates to Mtb H37Rv. Kind of test: microbe, parasite or virus in culture. The settings on record: Mycobacterium tuberculosis. It counts as cell-based.
In a further test the test system is Mtb H37Rv mc26206. Kind of test: microbe, parasite or virus in culture. The following applies: Mycobacterium tuberculosis. The class given is cell-based.
Test [4] relates to Mtb H37Rv. Kind of test: minimum bactericidal concentration (MBC), kill kinetics over 21 days. The class given is cell-based. The following applies: Mycobacterium tuberculosis, 504 h, aerobic, 7H9-Tw-OADC medium, 2-log kill in 21 days.
The subject of test [5] is THP-1 human monoocytic cell line. Kind of test: cytotoxicity towards PMA-differentiated THP-1 cells (CellTiter-Glo). It counts as cell-based. Background: Cellular ATP, detected with luciferase, serves as a proxy for viable cell number.
For another test, the system named is Mycobacterium abscessus. Kind of test: MIC against Mycobacterium abscessus, OD590. The settings on record: Mycobacteroides abscessus.
Test [6] deals with mycolic acid biosynthesis in Mtb. Kind of test: mycolic acid biosynthesis, [1,2-14C]acetate labeling, TLC and autoradiography. It counts as cell-based, Mycobacterium tuberculosis. The following applies: 0.4-4 μg/ml, 16 h.

Molecules are shown by their SMILES. In brackets after ≈: the same amount, converted by molar mass. Entries after “also recorded” stand apart in the source; their conditions may differ. Some results are limits rather than exact numbers.

Procedure for Mycobacterium abscessus: The activity of compounds against Mycobacterium abscessus and Mycobacterium avium was assessed under aerobic conditions by determining the minimum inhibitory concentration of compound (MIC). The strains were M. abscessus subsp. bollettii 103 and M. avium subsp. avium 2285 (S). The assay was based on measurement of growth in liquid medium of each strain where the readout is optical density (OD) or metabolic activity (using Alamar blue).
The MIC of compound against Mycobacterium abscessus and Mycobacterium avium was determined by measuring bacterial growth in the presence of test compounds. Compounds were prepared as 20-point two-fold serial dilutions in DMSO and diluted into 7H9-Tw-OADC medium in 96-well plates with a final DMSO concentration of 2%. The highest concentration of compound was 200 μM where compounds were soluble in DMSO at 10 mM. Each plate included assay controls for background (medium/DMSO only, no bacterial cells), zero growth (100 μM rifampicin) and maximum growth (DMSO only), as well as a rifampicin dose response curve.
For Mycobacterium abscessus, plates were inoculated with M. abscessus and incubated for 3 days at 37° C.; growth was measured by OD590. […] Rifampicin was included once in each run. […] If no point reached 75% inhibition, the MIC was reported as >maximum concentration tested.

For the compound `NNC(=O)c1ccncc1` [INH, Isoniazid, reference compound], in test [1], the IC50 stood at 0.24 µM.

For the compound `CCOC(=O)c1c(NC(=O)c2cc(C(F)(F)F)cc(C(F)(F)F)c2)sc2c1CCN(CC)C2` [4{3,4,0}, Ethyl 2-(3,5-bis(trifluoromethyl)benzamido)-6-ethyl-4,5,6,7-tetrahydrothieno[2,3-c]pyridine-3-carboxylate], the MIC in the test on Mtb H37Rv [2] (read-out: MIC) is more than 100 µg/mL.

Take `CCOC(=O)c1c(NC(=O)c2ccccc2)sc2c1CCCC2` [4{4,2,0}]: in the test on Mtb H37Rv [2], the “growth inhibition activity in words” value was “no activity”.

With `CCN1CCc2c(sc(NC(=O)c3cc(C(F)(F)F)cc(C(F)(F)F)c3)c2C(=O)NCc2ccc(C)cc2)C1` [4{3,4,3}, 2-(3,5-Bis(trifluoromethyl)benzamido)-6-ethyl-N-(4-methylbenzyl)-4,5,6,7-tetrahydrothieno[2,3-c]pyridine-3-carboxamide], the MIC with Mtb H37Rv [2] is not below 200 µg/mL.

As to `CCOC(=O)c1cc(-c2ccccc2)sc1NC(=O)c1c(F)c(F)c(F)c(F)c1F` [4{5,3,0}, Ethyl 2-(perfluorobenzamido)-5-phenylthiophene-3-carboxylate], the MIC with Mtb H37Rv [2] (read-out: MIC) is more than 100 µg/mL.

Consider `CCOC(=O)c1c(NC(=O)c2c(F)c(F)c(F)c(F)c2F)sc2c1CCN(C(=O)OC(C)(C)C)C2` [4{2,3,0}, 6-(Tert-butyl) 3-ethyl 2-(perfluorobenzamido)-4,7-dihydrothieno[2,3-c]pyridine-3,6(5H)-dicarboxylate], for which, in the test with Mtb H37Rv [2], the “growth inhibition activity in words” value was “inactive”.

Turning to `CCOC(=O)c1c(NC(=O)c2c(F)c(F)c(F)c(F)c2F)sc2c1CCN(CC)C2` [4{3,3,0}, ethyl 6-ethyl-2-(perfluorobenzamido)-4,5,6,7-tetrahydrothieno[2,3-c]pyridine-3-carboxylate], the results for the MIC with Mtb H37Rv [3], against Mtb H37Rv mc26206 and against Mycobacterium abscessus were 0.23 µM (≈ 0.103 µg/mL), 0.4 µg/mL (≈ 0.892 µM) and 1.11 µg/mL (≈ 2.48 µM), respectively. Besides, in the test with Mtb H37Rv [2], the “increase in potency compared to compound 4{4,3,0}” value is on record as 40 fold. In addition, the minimal bactericidal concentration (MBC) against Mtb H37Rv [4] was less than 5 µM. Further, the IC50 in test [5] (Homo sapiens, 72 h, THP-1 macrophage-like cells, 3 days, read-out: IC50 (concentration causing a 50% loss in viability)) stood at 6.2 µM; in test [1], 5.6 µM. In test [5] (times higher than the MIC), the “macrophage viability IC50 relative to the MIC” value came to 27 times. Besides, the IC90 in test [1] (THP-1, read-out: IC90 intracellular activity) stood at 9.75 µM. The “effect on synthesis of mycolic acids (TMM, TDM, mAG-attached mycolates)” value in test [6] was “strongly inhibits the biosynthesis of all forms of mycolic acid; also recorded: strongly inhibits the synthesis of all forms of mycolic acids”.

A word on the MBC: it is the smallest concentration meeting the test's criterion for killing. In general, IC90 refers to the concentration needed for an effect of 90%.
